# Assays:
# Format in all cases: in vivo
# [1] = test system: cotton aphid (Aphis gossypii); assay: Aphis gossypii - spray test; conditions: for Efficacy in % after 1 day: mortality after 1 day, cotton leaves; for Efficacy in % after 6 days: mortality after 6 days
# Protocol: (§1) Formula for the Efficacy of the Combination of Two Compounds • The expected efficacy of a given combination of two compounds is calculated as follows (see Colby, S. R., “Calculating Synergistic and antagonistic Responses of Herbicide Combinations”, Weeds 15, pp. 20-22, 1967): • If • X is the efficacy expressed in % mortality of the untreated control for test compound A at a concentration of m ppm respectively m g/ha, • Y is the efficacy expressed in % mortality of the untreated control for test compound B at a concentration of n ppm respectively n g/ha, • E is the efficacy expressed in % mortality of the untreated control using the mixture of A and B at m and n ppm respectively m and n g/ha, • then is
# (§2) [formula] • If the observed insecticidal efficacy of the combination is higher than the one calculated as “E”, then the combination of the two compounds is more than additive, i.e. there is a synergistic effect.
# Aphis gossypii—Spray Test
# (§3) Solvent: 7 parts by weight of dimethylformamide
# (§4) Emulsifier: alkylaryl polyglycol ether
# (§5) To produce a suitable preparation of active compound, 1 part by weight of active compound is mixed with the stated amount of solvent and is diluted with water, containing an emulsifier concentration of 1000 ppm, to the desired concentration. Further test concentrations are prepared by dilution with emulsifier containing water.
# Cotton leaves (Gossypium hirsutum) which are heavily infested with the cotton aphid (Aphis gossypii) are treated by being sprayed with the preparation of the active compound of the desired concentration.
# After the specified period of time the mortality in % is determined. 100% means all the aphids have been killed; 0% means none of the aphids have been killed. The mortality values determined thus are recalculated using the Colby-formula (see above).
# [2] = test system: two spotted spidermite (Tetranychus urticae); assay: Tetranychus urticae - spray test OP-resistant; conditions: for Efficacy in % after 2 days: mortality after 2 days; for Efficacy in % after 6 days: mortality after 6 days
# Protocol: as §1, §2
# Tetranychus urticae—Spray Test OP-Resistant
# as §5, with “solvents” for “solvent”
# French bean (Phaseolus vulgaris) leaf disks infected with all instars of the two spotted spidermite (Tetranychus urticae), are sprayed with a preparation of the active ingredient of the desired concentration.
# After the specified period of time, mortality in % is determined. 100% means all spider mites have been killed and 0% means none of the spider mites have been killed. The mortality values determined thus are recalculated using the Colby-formula (see above).
# [3] = test system: caterpillars of the fall army worm (Spodoptera frugiperda); assay: Spodoptera frugiperda - spray test; conditions: for Efficacy in % after 1 day: mortality after 1 day; for Efficacy in % after 2 days: mortality after 2 days; for Efficacy in % after 3 days: mortality after 3 days; for Efficacy in % after 6 days: mortality after 6 days
# Protocol: as §1, §2
# Spodoptera frugiperda—Spray Test
# as §3, §4, §5
# Cotton leaves (Gossypium hirsutum) are treated by being sprayed with the preparation of the active compound of the desired concentration and are infested with caterpillars of the fall army worm (Spodoptera frugiperda).
# After the specified period of time mortality in % is determined. 100% means all the caterpillars have been killed and 0% means none of the caterpillars have been killed. The mortality values determined thus are recalculated using the Colby-formula (see above).
compound,measurement,setting,value
"CNC(=O)c1cc(Cl)cc(C)c1NC(=O)c1cc(Br)nn1-c1ncccc1Cl [Chlorantraniliprole, 3-bromo-4′-chloro-1-(3-chloro-2-pyridyl)-2′-methyl-6′-(methylcarbamoyl)pyrazole-5-carboxanilide]",Efficacy in % after 1 day,[1]; 8 ppm,10%
same,Efficacy in % after 6 days,[1]; 8 ppm,45%
same,Efficacy in % after 2 days,[2]; 0.2 g ai/ha,0%
same,Efficacy in % after 2 days,[2]; 0.8 g ai/ha,0%
same,Efficacy in % after 2 days,[2]; 3.2 g ai/ha,0%
Cc1cc(F)c(N=C2SCC(=O)N2CC(F)(F)F)cc1[S+]([O-])CC(F)(F)F (stereo not shown) [Cpd of formula (I)],Efficacy in % after 6 days,[1]; 0.8 ppm,0%
same,Efficacy in % after 1 day,[1]; 1.6 ppm,0%
same,Efficacy in % after 6 days,[1]; 1.6 ppm,0%
same,Efficacy in % after 1 day,[3]; 0.3 ppm,0%
same,Efficacy in % after 2 days,[3]; 0.3 ppm,0%
same,Efficacy in % after 3 days,[3]; 0.3 ppm,0%
same,Efficacy in % after 6 days,[3]; 0.3 ppm,0%
same,Efficacy in % after 1 day,[3]; 0.6 ppm,0%
same,Efficacy in % after 2 days,[3]; 0.6 ppm,0%
same,Efficacy in % after 3 days,[3]; 0.6 ppm,0%
same,Efficacy in % after 6 days,[3]; 0.6 ppm,0%
same,Efficacy in % after 1 day,[3]; 1.2 ppm,0%
same,Efficacy in % after 3 days,[3]; 1.2 ppm,0%
same,Efficacy in % after 6 days,[3]; 1.2 ppm,0%
same,Efficacy in % after 6 days,[2]; 0.1 g ai/ha,0%
same,Efficacy in % after 2 days,[2]; 0.4 g ai/ha,0%
same,Efficacy in % after 2 days,[2]; 1.6 g ai/ha,0%
same,Efficacy in % after 2 days,[2]; 6.4 g ai/ha,0%
"CNC(=O)c1cc(C#N)cc(C)c1NC(=O)c1cc(Br)nn1-c1ncccc1Cl [Cyantraniliprole, 3-bromo-1-(3-chloro-2-pyridyl)-4′-cyano-2′-methyl-6′-(methylcarbamoyl)pyrazole-5-carboxanilide]",Efficacy in % after 2 days,[3]; 0.12 ppm,0%
same,Efficacy in % after 3 days,[3]; 0.12 ppm,0%
same,Efficacy in % after 6 days,[3]; 0.12 ppm,10%
same,Efficacy in % after 1 day,[3]; 0.24 ppm,0%
same,Efficacy in % after 2 days,[3]; 0.24 ppm,0%
same,Efficacy in % after 3 days,[3]; 0.24 ppm,10%
same,Efficacy in % after 6 days,[3]; 0.24 ppm,20%
same,Efficacy in % after 3 days,[3]; 0.48 ppm,60%
same,Efficacy in % after 6 days,[3]; 0.48 ppm,70%
same,Efficacy in % after 2 days,[2]; 0.2 g ai/ha,0%
same,Efficacy in % after 2 days,[2]; 0.8 g ai/ha,0%
same,Efficacy in % after 2 days,[2]; 3.2 g ai/ha,0%
"CNC(=O)c1cc(C#N)cc(C)c1NC(=O)c1cc(Cn2nnc(C(F)(F)F)n2)nn1-c1ncccc1Cl [Tetraniliprole, 1-(3-chloro-2-pyridyl)-4′-cyano-2′-methyl-6′-methylcarbamoyl-3-{[5-(trifluoromethyl)-2H-tetrazol-2-yl]methyl}pyrazole-5-carboxanilide]",Efficacy in % after 1 day,[3]; 0.06 ppm,0%
same,Efficacy in % after 2 days,[3]; 0.06 ppm,60%
same,Efficacy in % after 1 day,[3]; 0.12 ppm,30%
same,Efficacy in % after 1 day,[3]; 0.24 ppm,40%
same,Efficacy in % after 6 days,[2]; 0.05 g ai/ha,0%
same,Efficacy in % after 2 days,[2]; 0.2 g ai/ha,0%
same,Efficacy in % after 2 days,[2]; 0.8 g ai/ha,0%
same,Efficacy in % after 2 days,[2]; 3.2 g ai/ha,0%

# — US11191271B2, “Active compound combinations having insecticidal/acaricidal properties” (priority 2017, dated 2021)
